Where two headings read alike, the source gives them in different places.
How the values were obtained:
[1] = tested on: B. cinerea; assay: bio-assay with tomato leaves against B. cinerea; format: in vivo, Botrytis cinerea
Source text: The untreated control (#2, only 70% ethanol) was taken as a reference for the maximal infection rate.

[2] = tested on: Puccinia triticina strain BT06M215; assay: in planta intensity of infection of wheat leaves by Puccinia triticina; format: in vivo
Source text: This experiment illustrates the effect of the crude extract (YE) of P. aphidis, synthetic (E)-2-octyl-2-pentenedioic acid (PA), extracted 2-octyl-2 pentenedioic acid from Pseudozyma aphidis in methanol, Rhapsody® (Bacillus subtilis) and Amistart (azoxystrobin) at 0.1% on the intensity of infection of wheat leaf fragments by uredospores of Puccinia triticina strain BT06M215. Rhapsody® (Bacillus subtilis) and Amistar® (azoxystrobin) are commercially available fungicidal solutions. P. titicina strain BT06M215 was isolated from untreated wheat leaves in France.
All fungicidal products were prepared in a volume of water corresponding to 200 L/ha. […]
For each experimental condition tested, 18 replicates of one wheat leaf were tested. […] Disease assessment (intensity of infection) on the first leaf of each wheat plantlets is monitored at 8 to 15 days post inoculation.

[3] = tested on: Phytophthora infestans strain Pi61; format: in vivo; conditions: in methanol, applied at 150 g/ha; Shirlan applied at 200 g/ha (FIGS. 10a, 10b)
[4] = tested on: P. infestans; format: cell-based, Phytophthora infestans
[5] = tested on: B. cinerea; assay: bio-assay in liquid medium (PDB) with B. cinerea as indicator strain; format: cell-based, Botrytis cinerea; conditions: at both a pH of 3 and a pH of 5 (FIG. 1)
Protocol: 2-octyl-2 pentenedioic acid was also evaluated for antifungal activity using bio-assay in liquid medium using B. cinerea as an indicator strain. The bio-assay was carried out in PDB liquid medium.
The bio-assay for determination of antifungal activity was set-up based on the procedure as described in Stammler and Speakman, 2006. Microtiter Method to Test the Sensitivity of Botrytis cinerea to Boscalid. Journal of Phytopathology, 154, 7-8, p 508-510. This bio-assay is based on dilution of the antimicrobial agent and determination of growth inhibition of a sensitive indicator strain, in this case Botrytis cinerea. The bio-assay was performed in 96-well microtiter plates and included micro-dilutions of the antimicrobial agent in a liquid growth medium, where each well was inoculated with a standardized number of fungal spores of the indicator strain. After incubation (no agitation, 18° C. in darkness for 5 days), the results were obtained by measurement of fungal growth by photometer at 405 nm and the values were corrected by comparison with the blanks (cultures without the antimicrobial compound). The ED (effective dose) values are compared with reference standard fungicides.

[6] = tested on: Zymoseptoria tritici strain Mg Tri-R6; format: in vivo; conditions: wheat; in methanol, applied at 100 gr/ha; Proline applied at 0.8 L/ha (FIGS. 7a, 7b)

`CC(=O)O` [Sample 3, Acetic acid] was tested, and the “effect on B. cinerea infection (in words)” value [1] was “inhibited B. cinerea infection”.

With `CCCCCCCC/C(=C\CC(=O)O)C(=O)O` [2-octyl-2 pentenedioic acid (synthetic), (E)-2-octyl-2-pentenedioic acid] the “efficacy against Puccinia triticina compared to Rhapsody” value ([2]; Rhapsody applied at 2.0 L/ha (FIGS. 3a, 3b)) was “comparable efficacy”, the “efficacy against Phytophthora infestans compared to Shirlan (fluazinam)” value [3] was “comparable efficacy” and the ED90 ([4]; pH 4.6, V8 juice liquid media) was 41 ppm. The ED90 ([4]; pH 6.2, V8 juice liquid media) was 42 ppm and the ED90 ([4]; pH 8.0, V8 juice liquid media) was “Not detected”.

`CCCCCCCCC(=CCC(=O)O)C(=O)O` [2-octyl-2 pentenedioic acid] was tested, and the “efficacy against B. cinerea” value [5] was “excellent efficacy”, the “efficacy against Puccinia triticina compared to Amistar” value ([2]; in methanol, applied at 100 g/ha, Amistar applied at 1 L/ha (FIGS. 4a, 4b)) was “comparable efficacy” and the ED90 ([4]; pH 4.6, V8 juice liquid media) was 37 ppm. For the same molecule, the ED90 ([4]; pH 6.2, V8 juice liquid media) was 41 ppm, the ED90 ([4]; pH 8.0, V8 juice liquid media) was “Not detected” and the “efficacy against Zymoseptoria tritici compared to Proline” value [6] was “comparable efficacy”.
